Broadly, the IC50 is the midpoint of a concentration-inhibition curve. In general, Kd refers to a measure of binding affinity in units of concentration. The low end stands for a tighter complex, the high end for a looser complex. Usually clearance stands for a measure of how efficiently the substance is removed, as volume per time. Low values mean a low capacity for elimination, high ones a high capacity for elimination. The half-life is the time needed for the level to fall by half in the phase considered. The term bioavailability denotes the share of a dose that reaches the circulation, judged against a reference dose that is usually intravenous. A lower bioavailability goes with poor availability. By inhibition in vivo is commonly meant the percentage by which the read-out fell short of the control.

Series [1] has as its target T1, High affinity nerve growth factor receptor (Homo sapiens, UniProt P04629).
Target sequence in this assay (P04629 whole entry): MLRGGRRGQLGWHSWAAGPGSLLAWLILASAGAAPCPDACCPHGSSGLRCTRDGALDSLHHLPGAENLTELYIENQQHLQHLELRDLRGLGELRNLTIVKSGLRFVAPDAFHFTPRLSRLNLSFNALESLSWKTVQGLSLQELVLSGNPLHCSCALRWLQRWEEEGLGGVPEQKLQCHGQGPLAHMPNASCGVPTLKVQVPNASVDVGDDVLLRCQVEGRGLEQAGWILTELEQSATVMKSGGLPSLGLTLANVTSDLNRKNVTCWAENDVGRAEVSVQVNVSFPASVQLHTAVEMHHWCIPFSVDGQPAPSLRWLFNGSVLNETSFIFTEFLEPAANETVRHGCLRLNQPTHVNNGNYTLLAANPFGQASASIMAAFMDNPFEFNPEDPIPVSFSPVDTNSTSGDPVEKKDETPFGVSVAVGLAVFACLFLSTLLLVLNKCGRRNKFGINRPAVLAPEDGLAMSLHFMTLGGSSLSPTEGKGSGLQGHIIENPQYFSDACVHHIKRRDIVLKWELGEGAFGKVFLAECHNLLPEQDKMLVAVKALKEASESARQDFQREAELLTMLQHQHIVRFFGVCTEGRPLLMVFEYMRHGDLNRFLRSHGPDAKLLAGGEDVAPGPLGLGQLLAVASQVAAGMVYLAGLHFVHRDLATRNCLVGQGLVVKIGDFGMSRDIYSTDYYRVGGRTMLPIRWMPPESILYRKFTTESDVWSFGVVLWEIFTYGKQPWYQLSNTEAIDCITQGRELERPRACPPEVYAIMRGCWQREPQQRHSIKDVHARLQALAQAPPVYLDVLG
Description: Inhibition of phsophorylated TrkA (unknown origin) assessed as inhibition of fluorescently-labelled substrate phosphorylation by CALIPER enzymatic assay
Series [2] concerns the target T1, High affinity nerve growth factor receptor. The source holds these as a separate data set.
Target sequence in this assay (P04629 whole entry): as above
Description: Inhibition of human TrkA expressed in human U2OS cells assessed as inhibition of NGF-induced maximum response after 1 hr by beta-galactosidase assay
For series [3] the target is unchanged. Nature of the series: Inhibition of purified TrkA cytoplasmic domain (unknown origin) by HTRF assay. In general terms: TR-FRET usually uses a lanthanide donor and a delayed reading to cut background.
Target sequence in this assay (P04629 whole entry): as above
Series [4] has the same target. The source holds these as a separate data set.
Target sequence in this assay (P04629 whole entry): as above
Description: Binding affinity to His-tagged TrkA (unknown origin) after 1 hr by SPR method
Series [5] deals with Rattus norvegicus. Nature of the series: Analgesic activity in po dosed Sprague-Dawley rat Chung spinal nerve ligation model assessed as reversal of mechanical hypersensitivity relative to control. The class given is functional, organism-based.
Series [6] has as its system Rattus norvegicus. Nature of the series: Antiinflammatory activity in Complete-Freunds adjuvant-induced Sprague-Dawley rat pain model assessed as reversal of mechanical hypersensitivity at 30 mg/kg, po bid for 7 days. Format: functional, organism-based. Also noted: dose 30 mg/kg.
Series [7] in a line: Clearance in rat. The class given is ADME, organism-based. The following applies: in vivo.
Series [8] in a line: Half life in rat. The class given is ADME, organism-based. The following applies: in vivo.
Series [9] in a line: Oral bioavailability in rat. The class given is ADME, organism-based. Particulars: in vivo.
Series [10] can be described thus: Plasma protein binding in rat. The class given is ADME, cell-free. Particulars: read-out: PPB (converted).
Series [11] deals with Rattus norvegicus. Nature of the series: Antiinflammatory activity in Complete-Freunds adjuvant-induced Sprague-Dawley rat pain model assessed as reversal of mechanical hypersensitivity at 100 mg/kg, po bid for 7 days. Format: functional, organism-based. Also noted: dose 100 mg/kg.
A short description of series [12]: Plasma concentration in Complete-Freunds adjuvant-induced Sprague-Dawley rat pain model at 10 mg/kg, po after 2 hrs. Details: dose 10 mg/kg, route oral. Format: ADME, organism-based.
Series [13] can be described thus: Plasma concentration in Complete-Freunds adjuvant-induced Sprague-Dawley rat pain model at 30 mg/kg, po after 2 hrs. The class given is ADME, organism-based. Also noted: dose 30 mg/kg, route oral.
Series [14] in a line: Plasma concentration in Complete-Freunds adjuvant-induced Sprague-Dawley rat pain model at 100 mg/kg, po after 2 hrs. Also noted: dose 100 mg/kg, route oral. The class given is ADME, organism-based.
Series [15] deals with Plasma. Nature of the series: Fraction unbound in plasma of Complete-Freunds adjuvant-induced Sprague-Dawley rat pain model at 10 mg/kg, po after 2 hrs. Format: ADME, organism-based. Details: dose 10 mg/kg, route oral. The following applies: in vivo.
The subject of series [16] is Plasma. Nature of the series: Fraction unbound in plasma of Complete-Freunds adjuvant-induced Sprague-Dawley rat pain model at 30 mg/kg, po after 2 hrs. Details: dose 30 mg/kg, route oral. The class given is ADME, organism-based. The following applies: in vivo.
The test system of series [17] is Plasma. Nature of the series: Fraction unbound in plasma of Complete-Freunds adjuvant-induced Sprague-Dawley rat pain model at 100 mg/kg, po after 2 hrs. Also noted: dose 100 mg/kg, route oral. Particulars: in vivo. The class given is ADME, organism-based.
Series [18] in a line: Ratio of fraction unbound in plasma of Complete-Freunds adjuvant-induced Sprague-Dawley rat pain model at 10 mg/kg, po after 2 hrs to IC50 for human TrkA expressed in human U2OS cells. The class given is ADME, organism-based. Details: dose 10 mg/kg, route oral. Particulars: in vivo.
Series [19] in a line: Ratio of fraction unbound in plasma of Complete-Freunds adjuvant-induced Sprague-Dawley rat pain model at 30 mg/kg, po after 2 hrs to IC50 for human TrkA expressed in human U2OS cells. The following applies: in vivo. Details: dose 30 mg/kg, route oral. The class given is ADME, organism-based.
Series [20] in a line: Ratio of fraction unbound in plasma of Complete-Freunds adjuvant-induced Sprague-Dawley rat pain model at 100 mg/kg, po after 2 hrs to IC50 for human TrkA expressed in human U2OS cells. The class given is ADME, organism-based. The following applies: in vivo. Details: dose 100 mg/kg, route oral.
Series [21] relates to Rattus norvegicus. Nature of the series: Analgesic activity in Sprague-Dawley rat Chung spinal nerve ligation model assessed as reversal of mechanical hypersensitivity at 30 mg/kg, po relative to control. Format: functional.
Series [22] concerns Plasma. Nature of the series: Plasma concentration in Sprague-Dawley rat Chung spinal nerve ligation model assessed as reversal of mechanical hypersensitivity at 10 mg/kg, po. The class given is ADME, organism-based. Also noted: dose 10 mg/kg, route oral. Particulars: in vivo.
Series [23] deals with Plasma. Nature of the series: Plasma concentration in Sprague-Dawley rat Chung spinal nerve ligation model assessed as reversal of mechanical hypersensitivity at 30 mg/kg, po. Details: dose 30 mg/kg, route oral. The class given is ADME, organism-based. The following applies: in vivo.
Series [24] deals with Plasma. Nature of the series: Plasma concentration in Sprague-Dawley rat Chung spinal nerve ligation model assessed as reversal of mechanical hypersensitivity at 100 mg/kg, po. Format: ADME, organism-based. Details: dose 100 mg/kg, route oral. Particulars: in vivo.
The test system of series [25] is Plasma. Nature of the series: Fraction unbound in plasma of Sprague-Dawley rat Chung spinal nerve ligation model assessed as reversal of mechanical hypersensitivity at 10 mg/kg, po. The class given is ADME, organism-based. Details: dose 10 mg/kg, route oral. The following applies: in vivo.
The subject of series [26] is Plasma. Nature of the series: Fraction unbound in plasma of Sprague-Dawley rat Chung spinal nerve ligation model assessed as reversal of mechanical hypersensitivity at 30 mg/kg, po. The class given is ADME, organism-based. The following applies: in vivo. Also noted: dose 30 mg/kg, route oral.
Series [27] deals with Plasma. Nature of the series: Fraction unbound in plasma of Sprague-Dawley rat Chung spinal nerve ligation model assessed as reversal of mechanical hypersensitivity at 100 mg/kg, po. Details: dose 100 mg/kg, route oral. Particulars: in vivo. Format: ADME, organism-based.
Series [28] is described as follows: Ratio of fraction unbound in plasma of Sprague-Dawley rat Chung spinal nerve ligation model assessed as reversal of mechanical hypersensitivity at 10 mg/kg, po to IC50 for human TrkA expressed in human U2OS cells. The following applies: in vivo. Also noted: dose 10 mg/kg, route oral. Format: ADME, organism-based.
Series [29] is described as follows: Ratio of fraction unbound in plasma of Sprague-Dawley rat Chung spinal nerve ligation model assessed as reversal of mechanical hypersensitivity at 30 mg/kg, po to IC50 for human TrkA expressed in human U2OS cells. Format: ADME, organism-based. Also noted: dose 30 mg/kg, route oral. The following applies: in vivo.
Series [30] is described as follows: Ratio of fraction unbound in plasma of Sprague-Dawley rat Chung spinal nerve ligation model assessed as reversal of mechanical hypersensitivity at 100 mg/kg, po to IC50 for human TrkA expressed in human U2OS cells. Format: ADME, organism-based. Also noted: dose 100 mg/kg, route oral. Particulars: in vivo.
For series [31], the target named is T1, High affinity nerve growth factor receptor. This is another data set of the same source.
Target sequence in this assay (P04629 33-796 limits assumed): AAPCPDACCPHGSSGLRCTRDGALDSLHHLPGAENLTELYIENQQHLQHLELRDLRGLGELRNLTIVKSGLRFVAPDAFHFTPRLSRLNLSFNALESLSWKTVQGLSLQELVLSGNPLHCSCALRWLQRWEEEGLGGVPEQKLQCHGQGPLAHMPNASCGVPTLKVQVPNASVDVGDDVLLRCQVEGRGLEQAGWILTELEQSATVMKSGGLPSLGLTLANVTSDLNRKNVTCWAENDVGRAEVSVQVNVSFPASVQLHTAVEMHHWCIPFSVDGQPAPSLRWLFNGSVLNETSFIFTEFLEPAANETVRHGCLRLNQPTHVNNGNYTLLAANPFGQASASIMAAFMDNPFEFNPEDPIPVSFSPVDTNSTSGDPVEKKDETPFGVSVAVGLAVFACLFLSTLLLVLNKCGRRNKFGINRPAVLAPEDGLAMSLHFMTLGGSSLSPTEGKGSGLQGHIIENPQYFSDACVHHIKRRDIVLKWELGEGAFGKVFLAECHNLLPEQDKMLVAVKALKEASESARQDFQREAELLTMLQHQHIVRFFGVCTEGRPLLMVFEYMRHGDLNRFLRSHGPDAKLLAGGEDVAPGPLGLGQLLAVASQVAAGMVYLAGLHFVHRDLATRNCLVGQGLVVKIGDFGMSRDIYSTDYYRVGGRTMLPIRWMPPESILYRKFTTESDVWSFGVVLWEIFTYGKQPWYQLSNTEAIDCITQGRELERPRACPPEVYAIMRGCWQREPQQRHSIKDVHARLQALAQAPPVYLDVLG
Description: Binding affinity to His-tagged TrkA (unknown origin) assessed as half life after 1 hr by SPR method

Active and inactive are the calls of the source.

For the compound `CCOc1cccc(-c2nccc3c2cc(C(=O)O)n3CCOc2ccc(OC(F)(F)F)cc2)c1`, the IC50 is 348 nM in [1] and 59 nM in [2].

For `CC(C)N(Cc1c[nH]c2ncccc12)C(=O)Nc1ccc(OC(F)(F)F)cc1`, the concentration for half-maximal inhibition (IC50) amounted to 11 nM in series [1] and 3 nM in [2].

As to `CN1CCN(c2ccc(Nc3ncnc4ccc(NCc5cccc(Cl)c5)nc34)cc2)CC1`, the values for the IC50 in [3] and in series [1] were 11 nM and 1690 nM, respectively. Besides, the dissociation constant (Kd) in series [4] came out at 63 nM.

In the case of `CC(C)C[C@H](CN)CC(=O)O`, the inhibition entry with Rattus norvegicus [5] is “Active”.

In turn, `O=C(NCc1cccc(-c2nccs2)c1)Nc1ccc(OC(F)(F)F)cc1` showed an IC50 in series [1] of over 100000 nM.

Regarding `CC(C)(C)c1cc(NC(=O)Cn2cc(-c3ccc(-n4ccnc4)nc3)nn2)n(-c2cccnc2)n1`, the 50% inhibitory concentration (IC50) turned out to be 9 nM in series [3] and 7 nM in [2]. Further, the inhibition result in the series with Rattus norvegicus [6] and in the series with Rattus norvegicus [11] was “Active” in each case. Also, the clearance in [7] turned out to be 16 mL/min/kg. For the same compound, in series [8], the half-life was 2.6 h. The compound also returned a bioavailability in [9] of 30%. Moreover, in [10], the fraction unbound is 0.005. Besides, the concentration at 2 h in series [12] turned out to be 1000 nM; in series [13], 4000 nM; in [14], 16000 nM. In addition, the “Cp(f)” value in the series on Plasma [15] was 5 nM; with Plasma [16], 20 nM; with Plasma [17] it was 80 nM; in the series with Plasma [25] it was 5 nM; in the series with Plasma [26], 34 nM; with Plasma [27], 115 nM. In addition, the Ratio in series [18] turned out to be 1; in series [19], 4; in series [20], 16; in [28], 1; in series [29], 6; in series [30], 23. Moreover, in the series with Rattus norvegicus [21], the inhibition in vivo at 30 mg/kg is 50%. Also, the concentration came out at 1000 nM in the series on Plasma [22], 6700 nM in the series on Plasma [23] and 23000 nM in the series on Plasma [24]. Also, the Kd in [4] came to 0.94 nM. In addition, in [31], the T1/2 was found to be 1.13 h.

`Cc1cn2cc(CNc3ncnc4ccc(N5CCC[C@@H]5c5cc(F)ccc5F)nc34)nc2s1`: the 50% inhibitory concentration (IC50) in [3] was 1.5 nM; in [1], 13 nM.

As for `CCOc1cccc(-c2nccc3c2cc(C(=O)O)n3CCOc2ccc(Cl)cc2)c1`, the values for the IC50 in series [1] and in series [2] were 653 nM and 200 nM, respectively. In addition, the equilibrium dissociation constant (Kd) in series [4] worked out at 3.5 nM. For the same compound, in [31], the T1/2 was found to be 2.13 h.

For the compound `O=C(O)c1cc2cnccc2n1CCOc1ccc(OC(F)(F)F)cc1`, the IC50 in [1] was found to be 12300 nM; in series [2], 15800 nM.

The compound `c1cncc(CNc2ccc3ncnc(Nc4ccc(N5CCOCC5)cc4)c3n2)c1` returned an IC50 in series [3] of 997 nM.

`CCOc1cccc(-c2nccc3c2cc(C(=O)O)n3CCOc2ccccc2)c1`: the IC50 was found to be 2070 nM in [1] and 109 nM in series [2].

As to `O=C(O)c1cc2cc(-c3cc[nH]n3)ccc2n1CCOc1ccc(OC(F)(F)F)cc1`, the values for the 50% inhibitory concentration (IC50) in [1] and in series [2] were 51 nM and 29 nM, respectively.

Turning to `N#Cc1ccc2c(c1)cc(C(=O)O)n2CCOc1ccc(OC(F)(F)F)cc1`, the IC50 worked out at 118 nM in series [1] and 150 nM in series [2].

For `CC(C)N(Cc1cccc(-c2nccs2)c1)C(=O)Nc1ccc(OC(F)(F)F)cc1`, the half-maximal inhibitory concentration (IC50) in series [1] was determined as 132 nM; in series [2], 56 nM. Besides, binding in [4] was put at a Kd of 63 nM. Moreover, in [31], the T1/2 was 0.1 h.

`COc1ccc2cc([C@H](C)C(=O)O)ccc2c1`: the inhibition entry with Rattus norvegicus [6] was “Active”.

In the case of `Cc1cn(-c2ccc(-c3cn(CC(=O)Nc4cc(C5CC5)nn4-c4ccccc4)nn3)cc2)cn1`, the concentration for half-maximal inhibition (IC50) in series [3] came to 60 nM; in [2] it was 9 nM.

Values taken from ChEMBL document CHEMBL3297676, “Maximizing diversity from a kinase screen: identification of novel and selective pan-Trk inhibitors for chronic pain” (J Med Chem, 2014).
